Test results: article PMC3871595, “Structure Based Identification and Characterization of Flavonoids That Disrupt Human Papillomavirus-16 E6 Function” (PLoS ONE, 2013)
Entries after “also recorded” stand apart in the source; their conditions may differ.

Tests used:
Caski cells = experiment: cell viability (MTS, Celltiter 96 AQueous) Caski; format: cell-based, human; conditions: 48 to 96 hours, relative to DMSO
[1] = test system: HPV-18 positive HeLa cells; experiment: cell viability (MTS, Celltiter 96 AQueous) HeLa; format: cell-based, human; conditions: 48 to 96 hours, relative to DMSO
Description: HPV-18 positive HeLa cells and two additional control cell lines, C33a, a cell line derived from an HPV-negative human cervical cancer isolate, and HaCat, a spontaneously immortalized human keratinocyte cell line, were used to assess compounds for their impact on cell growth and viability. All cells were incubated for 48 to 96 hours with increasing doses of compound. Cell viability was measured by MTS based assay and % viability quantified relative to cells treated with DMSO. […] This is in agreement with the lack of specificity for HPV-dependent cells observed in the p53 western results.
For cell viability, 12,000 cells per cm^2 were plated in 96-well dishes 24 hours prior to drug addition. Fresh media and compound were added. Plates were read after 72-96 hours. Relative cell viability was assayed as directed in the Celltiter 96 AQueous one solution assay (Promega). For caspase activity, plates were assayed after 4, 8, 12, 24, or 48 hours as described for the Caspase-Glo 3/7 assay (Promega).

[2] = test system: HPV-16 E6 mediated p53 degradation; experiment: in vitro HPV-16 E6 mediated p53 degradation assay; format: biochemical
Description: In vitro expressed p53 was incubated in rabbit reticulocyte lysate in the presence or absence of in vitro expressed HPV16 E6. p53 levels were reduced in reaction containing E6 proteins (Figure 8 ).
Control reactions (no DNA, p53 alone) were incubated with 1 µL wheat germ extract and 2% DMSO in reaction buffer. In vitro translated p53 and rabbit reticulocyte lysate (RRL, Promega) were added to all reactions except the no DNA control reaction to which wheat germ extract was added instead of p53. Reactions were incubated for 3 hrs at 30°C and stopped by addition of 6X reducing SDS sample buffer and heating at 95°C for 5 min. Each reaction was loaded onto a 10% SDS-PAGE gel and transferred onto PVDF (0.45 µm). p53 and 16E6 were visualized using monoclonal p53 (Pab1801, 1:1000), monoclonal 16E6 (813, Arbor Vita Corporation, 1:4000) antibody and anti-mouse HRP-labeled secondary antibody (1:2000, Sigma-Aldrich).

MBP-E6 = target: T1, MBP-E6 (Human papillomavirus type 16, UniProt P03126); experiment: thermal shift (Sypro Orange) assay; format: binding, HPV-16; conditions: versus DMSO; for effect on Tm of MBP-E6: 5-150 µM tested
T1 construct: made in house; host or cells: E. coli BL21DE(3)
T1 sequence (P03126 whole entry): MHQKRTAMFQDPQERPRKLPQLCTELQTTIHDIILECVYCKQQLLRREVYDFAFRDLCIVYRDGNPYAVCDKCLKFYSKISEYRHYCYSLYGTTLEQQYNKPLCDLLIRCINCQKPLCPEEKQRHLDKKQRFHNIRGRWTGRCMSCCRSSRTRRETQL
Description: A thermal shift assay was used to assess compound binding to HPV E6. In this reaction, protein denaturation is measured by an increase in fluorescence from Sypro Orange as it binds to the newly exposed hydrophobic surfaces on the protein [48]. A protein stability curve is created as a measure of the rate of protein unfolding. The relative fluorescence is plotted against temperature and the melting temperature (Tm) is determined by calculating the temperature of peak fluorescence. Ligand binding can stabilize the protein and increase the Tm. The thermal profile of MBP-E6 proteins was investigated to determine if the flavonoid derivatives could stabilize MBP-E6 protein structure during heat-induced unfolding. […] The change in Tm (∆Tm) was plotted for each compound and compared to DMSO (Figure 10F,G ).
MBP-16E6 DNA, a kind gift from G. Travé [58], was transformed into BL21DE(3) E. coli. Protein expression was performed by inoculation of a 1 mL starter culture in 100 mL of Turbo-Broth containing 0.2 % lactose, 0.05% glucose and 0.6% glycerol at 20°C for 24 hrs. Cells were lysed in 50 mM Tris HCl pH 6.8, 300 mM NaCl, 0.1 % (v/v) NP-40, 2 mM DTT and 1x protease inhibitor cocktail (EDTA-free, Roche) and sonicated as described before. Cell lysate was cleared by centrifugation at 15000xg, 4°C for 30 min and equilibrated with amylose resin beads (New England Biolabs, Inc.) by inversion for 3 hrs at 4°C. Bound beads were washed one time in lysis buffer and four times with wash buffer (50 mM Tris-HCl pH 6.8, 400 mM NaCl, 2 mM DTT, 1x protease inhibitor cocktail). Bound MBP-E6 proteins were eluted using a final concentration of 20 mM maltose in 5 bed volumes of wash buffer. All steps were performed at 4°C. Protein concentration was measured by BCA (BioRad). Thermostability of MBP-E6 proteins was analyzed at a final concentration of 1 µM in reaction buffer (50 mM TrisHCl pH 6.8, 400 mM NaCl, 2 mM DTT). MBP-E6 proteins were equilibrated with CAF-8 (5 µM-150 µM), CAF-24 (5 µM-150 µM), CAF-26 (5 µM-150 µM) or DMSO for 30 min in reaction buffer. Sypro Orange, a hydrophobic fluorescent dye, was added at the end of the incubation period at a final concentration of 5X. The final DMSO concentration (1.8% v/v) was kept constant across the concentration range. Fluorescence was measured using the FRET channel of CFX96 Real-Time PCR thermal cycler (BioRad) over a temperature range of 25°C to 95°C. Temperature increments were set to 0.5°C for 30 sec followed by plate reading. Melt curves were determined in triplicate and repeated four times. Melt curves represent the relative fluorescence of the 1st derivative of four experiments. Melting temperature (Tm) was calculated by CFX manager software. The average melting temperature of the triplicate was used to calculate the ∆Tm for each experiment. ∆Tm values are expressed as the change vs. DMSO.

[3] = 100 µM compound pre-incubated with E6

Row | SMILES | cell growth and viability (Caski cells) | cell growth and viability [1] | effect on E6 mediated p53 degradation ([2]; 10 µM compound pre-incubated with E6) | effect on E6 mediated p53 degradation [2, 3] | effect on Tm of MBP-E6 (MBP-E6) | shift of MBP-E6 Tm (MBP-E6; at 25, 50 and 150 µM) [°C]
1 | COc1cccc(-c2cc(=O)c3cc(-c4nnn[nH]4)ccc3o2)c1 [CAF-24] | selectively inhibited growth | selectively inhibited growth | stabilized p53 | stabilized p53 | about 1 °C | ~1
2 | O=c1cc(-c2ccc(O)c(O)c2)oc2cc(O)cc(O)c12 [luteolin, reference compound] | potent inhibitor of Caski, E6/E7 HFKs, and HeLa growth | potent inhibitor of Caski, E6/E7 HFKs, and HeLa growth |  | decrease in p53 was not observed | no effect on the Tm of MBP-E6; also recorded: did not shift the Tm of MBP-E6 | 
